In patent US20240382488A1, “NEK7 INHIBITORS” (Halia Therapeutics, Inc., priority 2021, published 2024) one finds IC50 data, which are given here for 20 compounds.

Molecules are shown by their SMILES.

In the experiment the target is T1, full-length recombinant human Nek7 (Homo sapiens, UniProt Q8TDX7).
T1 construct: full-length recombinant human Nek7; GST (N); purchased SignalChem N09-10G; host or cells: Sf9 insect cells (baculovirus)
T1 sequence (Q8TDX7 whole entry): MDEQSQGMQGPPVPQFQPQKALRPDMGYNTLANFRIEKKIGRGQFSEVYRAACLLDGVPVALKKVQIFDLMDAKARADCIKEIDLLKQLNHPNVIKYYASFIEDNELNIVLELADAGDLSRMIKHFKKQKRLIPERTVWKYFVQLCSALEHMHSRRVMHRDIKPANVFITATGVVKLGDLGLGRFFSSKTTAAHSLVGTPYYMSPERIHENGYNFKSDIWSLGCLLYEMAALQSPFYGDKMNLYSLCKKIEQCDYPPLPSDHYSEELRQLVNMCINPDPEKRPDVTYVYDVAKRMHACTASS
Kind of experiment: NEK7 Enzymatic Assay. As to conditions: radiometric [32P]-ATP kinase assay, casein substrate 20 μM, Nek7 70 nM, 2 hours room temperature. Format: biochemical. As to the method: Casein substrate (from bovine milk, hydrolyzed and partially dephosphorylated mixture of α, β and κ caseins, obtained from Sigma Aldrich, catalogue #C4765, diluted in distilled water to a final concentration of 1 mg/mL, assay concentration 20 μM) and full-length recombinant human Nek7 (expressed by baculovirus in Sf9 insect cells using a N-terminal GST tag, obtained from SignalChem, catalogue #N09-10G, 0.1 μg/μL, assay concentration 70 nM) were mixed in assay buffer (20 mM Hepes pH 7.5, 10 mM MgCl2, 1 mM EGTA, 0.02% Brij35, 0.02 mg/ml BSA, 0.1 mM […], 2 mM DTT, 1% DMSO). Compounds of interest (in DMSO, serial 3-fold dilution from 10 μM to 0.5 nM) or control (1% DMSO) were dispensed into the kinase reaction mixture by Acoustic technology (Echo550; nanoliter range). After incubation at room temperature for 20 minutes, the kinase reaction was initiated by addition of [^32P]-ATP (Specific activity 10 μCi/μl) and the mixture was incubated at room temperature for 2 hours. The reaction was then stopped by spotting the reaction mixture on strips of phosphocellulose P81 paper. Following washing, the radioactivity of the P81 paper was measured and kinase activity data were expressed as the percent remaining kinase activity in test samples compared to vehicle (dimethyl sulfoxide) reactions. IC50 values and curve fits were obtained using Prism (GraphPad Software).
Representative compounds were tested for inhibitory activity against NEK7 according to the procedure described above.
As to `CC(C)(O)Cn1cc(-c2ccc3c(c2F)CCN3C(=O)Cc2cc(C(F)(F)F)ccc2F)c2c(N)ncnc21` [Compound I-23, 1-(5-(4-amino-7-(2-hydroxy-2-methylprop-yl)-7H-pyrrolo[2,3-d]-pyrimidin-5-yl)-4-fluoroindolin-1-yl)-2-(2-fluoro-5-(trifluoro-methyl)phenyl)ethan-1-one], the IC50 is under 150 nM.
For `COCCn1nc(-c2ccc3c(c2F)CCN3C(=O)Cc2cc(C(F)(F)F)ccc2F)c2c(N)ncnc21` [Compound I-24, 1-(5-(4-amino-1-(2-methoxyethyl)-1H-pyrazolo[3,4-d]pyrim-idin-3-yl)-4-fluoroindo-lin-1-yl)-2-(2-fluoro-5-(trifluoromethyl)phen-yl)ethan-1-one], the 50% inhibitory concentration (IC50) was under 150 nM.
With `COCCn1cc(-c2ccc3c(c2F)CCN3C(=O)Cc2cc(C(F)(F)F)ccc2F)c2c(N)ncnc21` [Compound I-26, 1-(5-(4-amino-7-(2-methoxyethyl)-7H-pyr-rolo[2,3-d]pyrimidin-5-yl)-4-fluoroindolin-1-yl)-2-(2-fluoro-5-(tri-fluoromethyl)phenyl)-ethan-1-one] the figure was under 150 nM; with `Nc1ncnc2c1c(-c1ccc3c(c1F)CCN3C(=O)Cc1cccc(C(F)(F)F)n1)cn2C1CC1` [Compound I-20, 1-(5-(4-amino-7-cyclo-propyl-7H-pyrrolo[2,3-d]pyrimidin-5-yl)-4-fluoroindolin-1-yl)-2-(6-(trifluoromethyl)pyr-idin-2-yl)ethan-1-one], under 150 nM.
With `Nc1ncnc2c1c(-c1ccc3c(c1F)CCN3C(=O)Cc1cc(C(F)(F)F)ccc1F)cn2CCC(=O)O` [Compound I-34, 3-(4-amino-5-(4-fluoro-1-(2-(2-fluoro-5-(tri-fluoromethyl)phenyl)-acetyl)indolin-5-yl)-7H-pyrrolo[2,3-d]pyrimidin-7-yl)propanoic acid] the figure was under 150 nM; with `Nc1ncnc2c1c(-c1ccc3c(c1F)CCN3C(=O)Cc1cc(C(F)(F)F)ccc1F)cn2CCO` [Compound I-18, 1-(5-(4-amino-7-(2-hydroxyethyl)-7H-pyr-rolo[2,3-d]pyrimidin-5-yl)-4-fluoroindolin-1-yl)-2-(2-fluoro-5-(tri-fluoromethyl)phenyl)-ethan-1-one], under 150 nM.
For `CC(C)n1cc(-c2ccc3c(c2F)CCN3C(=O)Cc2ccc(F)c(C(F)(F)F)c2)c2c(N)ncnc21` [Compound I-13, 1-(5-(4-amino-7-isoprop-yl-7H-pyrrolo[2,3-d]pyr-imidin-5-yl)-4-fluoroind-olin-1-yl)-2-(4-fluoro-3-(trifluoromethyl)phenyl)-ethan-1-one], the IC50 lay within 151 to 300 nM.
Regarding `Nc1ncnc2c1c(-c1ccc3c(c1Cl)CCN3C(=O)Cc1cc(C(F)(F)F)ccc1F)nn2C1CC1` [Compound I-15, 1-(5-(4-amino-1-cyclo-propyl-1H-pyrazolo[3,4-d]pyrimidin-3-yl)-4-chloroindolin-1-yl)-2-(2-fluoro-5-(trifluoro-methyl)phenyl)ethan-1-one], the IC50 was under 150 nM.
The figure for `CC(C)n1nc(-c2ccc3c(c2F)CCN3C(=O)Cc2ccc(F)cc2)c2c(N)ncnc21` [Compound I-3, 1-(5-(4-amino-1-iso-propyl-1H-pyrazolo[3,4-d]pyrimidin-3-yl)-4-fluoroindolin-1-yl)-2-(4-fluorophenyl)ethan-1-one] is over 1500 nM; for `CN1CC(n2cc(-c3ccc4c(c3F)CCN4C(=O)Cc3cc(C(F)(F)F)ccc3F)c3c(N)ncnc32)C1` [Compound I-33, 1-(5-(4-amino-7-(1-methylazetidin-3-yl)-7H-pyrrolo[2,3-d]pyr-imidin-5-yl)-4-fluoroin-dolin-1-yl)-2-(2-fluoro-5-(trifluoromethyl)phen-yl)ethan-1-one] it is under 150 nM.
As for `CN1CCN(Cc2ccc(C(F)(F)F)cc2CC(=O)N2CCc3c2ccc(-c2cn(C4CC4)c4ncnc(N)c24)c3F)CC1` [Compound I-30, 1-(5-(4-amino-7-cyclo-propyl-7H-pyrrolo[2,3-d]pyrimidin-5-yl)-4-fluoroindolin-1-yl)-2-(2-((4-methylpiperazin-1-yl)methyl)-5-(trifluoro-methyl)phenyl)ethan-1-one], the IC50 is over 1500 nM.
Regarding `CN1CCN(Cc2ccc(CC(=O)N3CCc4c3ccc(-c3cn(C5CC5)c5ncnc(N)c35)c4F)cc2C(F)(F)F)CC1` [Compound I-25, 1-(5-(4-amino-7-cyclo-propyl-7H-pyrrolo[2,3-d]pyrimidin-5-yl)-4-fluoroindolin-1-yl)-2-(4-((4-methylpiperazin-1-yl)methyl)-3-(tri-fluoromethyl)phenyl)-ethan-1-one], the IC50 fell in the range of 301 to 500 nM.
As for `CN1CCN(Cc2cc(CC(=O)N3CCc4c3ccc(-c3cn(C5CC5)c5ncnc(N)c35)c4F)cc(C(F)(F)F)c2)CC1` [Compound I-32, 1-(5-(4-amino-7-cyclo-propyl-7H-pyrrolo[2,3-d]pyrimidin-5-yl)-4-fluoroindolin-1-yl)-2-(3-((4-methylpiperazin-1-yl)methyl)-5-(tri-fluoromethyl)phenyl)-ethan-1-one], the IC50 is over 1500 nM.
Turning to `Cc1cccc(CC(=O)N2CCc3c2ccc(-c2cn(C4CC4)c4ncnc(N)c24)c3F)n1` [Compound I-21, 1-(5-(4-amino-7-cyclo-propyl-7H-pyrrolo[2,3-d]pyrimidin-5-yl)-4-fluoroindolin-1-yl)-2-(6-methylpyridin-2-yl)-ethan-1-one], the IC50 was under 150 nM.
With `Nc1nccc2c1c(-c1ccc3c(c1F)CCN3C(=O)Cc1cc(C(F)(F)F)ccc1F)nn2C1CC1` [Compound I-29, 1-(5-(4-amino-1-cyclo-propyl-1H-pyrazolo[4,3-c]pyridin-3-yl)-4-fluoro-indolin-1-yl)-2-(2-fluoro-5-(trifluoromethyl)phen-yl)ethan-1-one] the figure was under 150 nM; with `Nc1ncnc2c1c(-c1ccc3c(c1F)CCN3C(=O)Cc1cc(C(F)(F)F)ccc1F)nn2CCO` [Compound I-19, 1-(5-(4-amino-1-(2-hydroxyethyl)-1H-pyr-azolo[3,4-d]pyrimidin-3-yl)-4-fluoroindolin-1-yl)-2-(2-fluoro-5-(tri-fluoromethyl)phenyl)-ethan-1-one], under 150 nM; with `CN1CCC(n2cc(-c3ccc4c(c3F)CCN4C(=O)Cc3cc(C(F)(F)F)ccc3F)c3c(N)ncnc32)CC1` [Compound I-28, 1-(5-(4-amino-7-(1-methylpiperidin-4-yl)-7H-pyrrolo[2,3-d]pyr-imidin-5-yl)-4-fluoro-indolin-1-yl)-2-(2-fluoro-5-(trifluorometh-yl)phenyl)ethan-1-one], under 150 nM.
With `CN1CCCC(n2cc(-c3ccc4c(c3F)CCN4C(=O)Cc3cc(C(F)(F)F)ccc3F)c3c(N)ncnc32)C1` (centres unmarked) [Compound I-31, 1-(5-(4-amino-7-(1-methylpiperidin-3-yl)-7H-pyrrolo[2,3-d]pyr-imidin-5-yl)-4-fluoroin-dolin-1-yl)-2-(2-fluoro-5-(trifluoromethyl)phen-yl)ethan-1-one] the figure was under 150 nM; with `Nc1ncnc2c1c(-c1ccc3c(c1F)CCN3C(=O)Cc1cc(C(F)(F)F)ccc1F)cn2C1CC(O)C1` (centres unmarked) [Compound I-27, 1-(5-(4-amino-7-(3-hydroxycyclobutyl)-7H-pyrrolo[2,3-d]pyrimidin-5-yl)-4-fluoroindolin-1-yl)-2-(2-fluoro-5-(tri-fluoromethyl)phenyl)-ethan-1-one], under 150 nM.
The figure for `Nc1ncnc2[nH]cc(-c3ccc4c(c3F)CCN4C(=O)Cc3cc(C(F)(F)F)ccc3F)c12` [Compound I-22, 1-(5-(4-amino-7H-pyr-rolo[2,3-d]pyrimidin-5-yl)-4-fluoroindolin-1-yl)-2-(2-fluoro-5-(tri-fluoromethyl)phenyl)-ethan-1-one] is under 150 nM.
